Results taken from patent US8796202B2, “Multi-valent poly-Ubl chain inhibitors and methods of use” (City of Hope, priority 2011, dated 2014).
“Also recorded” adds a separate entry of the source. Non-standard residues stand in square brackets, D forms with d. Residues, ends and D or L forms follow the SMILES beside them. ξ: configuration not given here. *: point of attachment. Ile(3ξ) = CCC(C)[C@H](N)C(=O)O; Cbz = O=C(OCc1ccccc1)*

What was measured:
SUMO-3 = SUMO-3 (Homo sapiens, UniProt P55854); test: NMR (HSQC) chemical shift perturbation binding to SUMO-3; details: for chemical shift perturbation / binding to SUMO-3: HSQC, SUMO:ligand 1:3 or 1:10
Experimental: NMR studies. All NMR samples contained 10 mM phosphate buffer (pH 7.0) in 90% H2O/10% D2O. NMR spectra were acquired at 25° C. on a Bruker […] NMR spectrometer. All chemicals were dissolved in DMSO. Heteronuclear Single Quantum Coherence (HSQC) spectra were acquired at SUMO:compound ratios of 1:3 or 1:10 for the top scored compounds from virtual ligand screening. Both SUMO-1 and SUMO-2 were examined for their interactions with the compounds. The HSQC spectra were acquired for the protein alone, the protein with addition of 2% DMSO, and the protein in complex with a compound and 2% DMSO. The dissociation constant Kd was estimated by titrating the compound to SUMO-2, followed by recording HSQC spectra at protein:compound ratios of 1:1, 1:2, 1:3, 1:4, 1:5, 1:6, 1:7 and 1:20.
Interactions of the compounds shown in FIG. 4 with SUMO-1 and SUMO-3 were verified by NMR chemical shift perturbation analysis. These compounds generated negligible chemical shift perturbations (CSP) on SUMO-1, but much larger and specific chemical shift perturbations on SUMO-3 (FIGS. 5A and 6). […] Chemical shift perturbation was used to estimate the binding affinity of the representative compound, 333751, to SUMO-3 (20). […] This is not surprising given the much smaller size of the compound than the 10 amino acid residue SIM peptide. The SIM-binding groove on SUMO is very shallow and lacks a deep pocket (8). Since there is a lack of high affinity ligands to bind shallow surface pockets of proteins, it is unlikely that a high affinity small molecule ligand for the SIM binding surface of SUMO can be found.

[1] = target: interaction between SIM and SUMO-3 (Homo sapiens, UniProt P55854); test: SIM pull-down (ELISA) competition, SUMO-3 monomer; format: binding
Experimental: (§1) Purification of GST-WT-SIM and GST-SC-SIM. GST-tagged wild-type (GST-WT-SIM) or scrambled SIM sequence (GST-SC-SIM) was subcloned into the pGex4T-S expression vector (Amersham) and over-expressed as an N-terminal GST fusion protein in Escherichia coli strain BL21 (DE3) (Invitrogen) at 37° C. in LB media. Once the OD A595 nm reached 0.6, isopropyl 1-thio-[…] (IPTG; 1 mM) was added to the media and the cells were grown for an additional 4 h at 37° C. […]
(§2) SIM pull-down. […] The plate was read at 450 nm by an ELISA reader after the reaction was stopped by addition of phosphoric acid. Quantifications of all SIM pull-downs were scaled by measurement of GST-WT-SIM pull-down (100%) and GST-SCSIM pull-down (0%). […]
(§3) The SIM and control peptides were used in pull-down assays to determine the inhibitory effects of the conjugation of inhibitor to AuNPs. […] The amount of SUMO pulled down by the SIM peptide was detected by enzyme-linked immunosorbent assay (ELISA) in an EIA microtiter plate. […] Based on the concentrations of SUMO chains and the experimental design, it was determined that the IC50 value is likely larger than the average Kd value of the complex between AuNP and SUMO chains.

[2] = target: T1, interaction between poly-SUMO-3 chain and the tandem-SIM peptide (Homo sapiens, UniProt P55854); test: SIM pull-down (ELISA) competition, poly-SUMO-3 chains; format: binding
T1 construct: made in house
Experimental: Poly-SUMO chain formation. Poly-SUMO chains were synthesized by an in vitro SUMOylation reaction (4.375 μM GST-SUMO-3 and His-SUMO-3, 40 nM Ubc9 and E1, and 5 mM ATP in a 100 μl reaction). The reaction was carried out at 37° C. for 4 h and then diluted to 1 mL with phosphate buffered saline (PBS). Poly-SUMO chains were first separated from the His-SUMO-3 monomer by glutathione affinity chromatography. The eluted poly-SUMO chains were subsequently separated from the GST-SUMO-3 monomer by Ni-NTA chromatography. The eluted poly-SUMO chains were dialyzed and concentrated.
Purification of GST-WT-SIM and GST-SC-SIM. GST-tagged wild-type (GST-WT-SIM) or scrambled SIM sequence (GST-SC-SIM) was subcloned into the pGex4T-S expression vector (Amersham) and over-expressed as an N-terminal GST fusion protein in Escherichia coli strain BL21 (DE3) (Invitrogen) at 37° C. in LB media. […]
as §2
The SIM and control peptides were used in pull-down assays to determine the inhibitory effects of the conjugation of inhibitor to AuNPs. […] The amount of SUMO pulled down by the SIM peptide was detected by enzyme-linked immunosorbent assay (ELISA) in an EIA microtiter plate. […]

[3] = target: interaction between SIM and SUMO-1 (Homo sapiens, UniProt P63165); test: SIM pull-down (ELISA) competition, SUMO-1 monomer; format: binding
Experimental: as §1, §2, §3

all SUMO isoforms = details: reference (7), cited from earlier work

SUMO-3, sequence (P55854 1-92 limits assumed): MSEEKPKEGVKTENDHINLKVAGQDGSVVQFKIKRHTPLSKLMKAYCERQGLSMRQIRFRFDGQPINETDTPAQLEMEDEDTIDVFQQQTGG
T1 sequence (P55854 1-92 limits assumed): as above
T1 sequence (P55854 1-92 limits assumed): as above
interaction between SIM and SUMO-3, sequence (P55854 1-92 limits assumed): as above
interaction between SIM and SUMO-1, sequence (P63165 1-97 limits assumed): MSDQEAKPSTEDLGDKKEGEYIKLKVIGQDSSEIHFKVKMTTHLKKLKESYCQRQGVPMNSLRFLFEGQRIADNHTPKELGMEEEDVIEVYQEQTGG

With CCC(C)[C@H](NC(=O)OCc1ccccc1)C(=O)N[C@@H](CC(C)C)C(=O)O (stereo partly drawn) [compound 333751] (Cbz-[Ile(3ξ)]-Leu-OH) the “chemical shift perturbation / binding to SUMO-3” value (SUMO-3) was “among the strongest; also recorded: induced chemical shift perturbation on the same surface of SUMO-3 and to a similar extent”, the “affinity lower than that between the PIASx SIM and SUMO-2” value (SUMO-3; compared with PIASx SIM peptide) was “more than 200 fold” and the Kd (SUMO-3; estimated from chemical shift change vs ligand:protein ratio) was 1200 ± 400 µM.
With CCC(C)[C@H](NC(=O)/C=C/c1ccc(NC(=O)CCS)cc1)C(=O)N[C@@H](CC(C)C)C(=O)O (stereo partly drawn) [derivative 2] the “inhibition of SUMO-3 monomer / SIM peptide interaction” value [1] was “not significantly inhibitory”, the “inhibition of poly-SUMO-3 chain / SIM interaction” value [2] was “nor did it inhibit poly-SUMO chain and SIM interactions” and the “inhibition of SUMO-1 monomer / SIM peptide interaction” value [3] was “not significantly inhibitory”. The “chemical shift perturbation / binding to SUMO-3” value (SUMO-3) was “induced chemical shift perturbation on the same surface of SUMO-3 and to a similar extent”.
In the case of KVDVIDLTIE [PIASx SIM], the “higher affinity for all SUMO isoforms than other characterized SIM sequences” value (all SUMO isoforms) is given as about 10 fold and the Kd (all SUMO isoforms; read-out: dissociation constants for all SUMO isoforms) is given as 4 to 8 µM.
